{"source": "patent US20230146038A1", "about": "“DIMERIZATION ASSAY” (The University of Bath, priority 2020, published 2023)", "molecules": {"B1": {"name": "basic-cJun (other)", "chain": "MRIKAERKRMRNRIAASKCRKRKLERIARLEEKVKTLKAQNYELASTANMLREQVAQLGAPHHHHHH", "notes": "also called AP-1 component; p230d-basic-cJun"}}, "key": {"BL21 GOLD cells": {"tested_on": "BL21 GOLD cells", "test": "Aβ1-42 dimerization assay (colony growth)", "assay_type": "cell-based, E. coli", "conditions": "for colonies grown on test plates: M9 minimal media with Tmp and IPTG; for colonies grown on negative control plates: M9 minimal media with Tmp; for No. of colonies (CFU): 48-hour incubation", "text": "Schematic illustrating general principles of using the TBS assay to screen for inhibitors of the initial dimerization event of Aβ1-42. In bacterial cells, endogenous DHFR can be inhibited using the antibiotic trimethoprim, making cells reliant on the modified, exogenous DHFR (top panel). In this setting, if AP-1 binds to the TRE sites in the DHFR, transcription is blocked and no functional DHFR enzyme is produced, resulting in cell death (middle panel). By attaching this basic cJun region to Aβ1-42, a functional DNA binder will be created if two Aβ1-42 peptides dimerize. In the absence of an inhibitor, basic-Aβ1-42 dimerization would lead to blocking of the DHFR gene transcription, resulting in cell death (lower left hand panel). Only cells treated with a successful Aβ1-42 dimerization inhibitor would produce DHFR and so survive, allowing selection for potential therapeutics for treating Alzheimer's Disease (lower right hand panel).\nBL21 GOLD cells stably expressing a pREP4 plasmid containing lac inhibitor […] gene were used for the dimerization assay, so that the lac operon could be controlled. Cells were transformed with p300d plasmid containing DHFR with 15 TRE sites under control of the lac operon (described in Example 1), and either a p230d containing Aβ1-42 or constructed basic-Aβ1-42.\nBL21 from the 100 μL plates were scraped into LB and selecting antibiotics and grown to an OD600 of 0.5. 100 μL of culture was plated onto positive control, negative control and test plates, as described in Table 3 below.\nA covering of cells was seen on both positive control plates, showing that BL21 cells were not affected by scraping and re-plating. Tmp was used to inhibit the endogenous, E. coli DHFR enzyme. […] Two basic-Aβ1-42 expressing colonies and one Aβ1-42 colony grew on these negative control plates. Test plates contained IPTG to bind to lac repressor protein and allow expression of the modified DHFR in the bacteria. There were 63 Aβ1-42 expressing BL21 colonies formed on these plates, which confirmed that the modified DHFR gene allows cells to grow on minimal media. Importantly, only 2 basic-Aβ1-42 expressing colonies grew on test plates, which was consistent with levels of background growth seen on negative control plates."}, "[1]": {"tested_on": "TRE's introduced within the mDHFR gene", "test": "Transcription-Block Survival (TBS) assay with basic-cJun", "assay_type": "cell-based, E. coli", "conditions": "M9 minimal media with Tmp and IPTG, protein overexpressed on second plasmid with mDHFR containing 15 TREs", "text": "Fifteen TREs have been introduced into the mDHFR gene. A) The changes to the DNA sequence result in a fully active protein that expresses, folds, and confers survival in M9 minimal media using trimethoprim (TMP) to inhibit bacterial DHFR. […] Expressing mDHFR with IPTG (right hand side plates), generates colonies in A) but not B).\nIt was next necessary to establish that introduction of an AP-1 component (in this case basic-cJun) would result in binding to the 15 TRE's introduced within the mDHFR gene and therefore failure of the gene to be transcribed.\nThree plasmids were used for this assay. These are i) p300-mDHFR (Cm; SEQ ID NO: 42) to express the […] sequence containing mDHFR, which is under control of the lac-operon; ii) p230d-basic-cJun (Amp; SEQ ID NO: 43) which is also under control of the lac-operon; iii) pREP4 (Kan; SEQ ID NO: 44) to express the lac repressor.\nCells were grown under non-selective conditions (i.e. LB/LB agar) containing Cm/Amp/Kan up until the time of the Assay. During TBS Selection Cells are grown in M9 minimal media (Agar or Broth) in the presence of Cm/Amp/Kan, as well as Tmp (to inhibit the bacterial copies of DHFR) and IPTG (to induce expression of mDHFR and bZIP proteins). […]"}, "[2]": {"molecular_target": "the molecule itself", "test": "TBS cell survival assay in E. coli, colony formation on M9 agar"}, "[3]": {"conditions": "Negative control plate: M9 minimal agar, 3.4 μM Tmp, no IPTG"}, "[4]": {"conditions": "Positive control plate: LB agar, Cm, Kan and Amp"}, "[5]": {"conditions": "Test plate: M9 minimal agar, 3.4 μM Tmp, 1 mM IPTG"}}, "data": [{"molecule": "basic-Aβ1-42: fusion protein of the basic cJun region and Aβ1-42 (SEQ ID NO: 51)", "values": [{"measurement": "colonies grown on test plates", "setting": "BL21 GOLD cells", "result": 2, "unit": "colonies"}, {"measurement": "colonies grown on negative control plates", "setting": "BL21 GOLD cells; no IPTG", "result": "Two"}, {"measurement": "No. of colonies (CFU)", "setting": "BL21 GOLD cells; [3]", "result": 2, "unit": "CFU"}, {"measurement": "No. of colonies (CFU)", "setting": "BL21 GOLD cells; [4]", "result": "Covered"}, {"measurement": "No. of colonies (CFU)", "setting": "BL21 GOLD cells; [5]", "result": 2, "unit": "CFU"}]}, {"molecule": "Aβ1-42: amyloid-β peptide having 42 amino acids (SEQ ID NO: 49), expressed without the basic cJun region [reference compound]", "values": [{"measurement": "colonies grown on test plates", "setting": "BL21 GOLD cells", "result": 63, "unit": "colonies"}, {"measurement": "colonies grown on negative control plates", "setting": "BL21 GOLD cells; no IPTG", "result": "one"}, {"measurement": "No. of colonies (CFU)", "setting": "BL21 GOLD cells; [3]", "result": 1, "unit": "CFU"}, {"measurement": "No. of colonies (CFU)", "setting": "BL21 GOLD cells; [4]", "result": "Covered"}, {"measurement": "No. of colonies (CFU)", "setting": "BL21 GOLD cells; [5]", "result": 63, "unit": "CFU"}]}, {"molecule": "B1", "values": [{"measurement": "bacterial colony formation in minimal media", "setting": "[1]", "result": "complete loss of bacterial colonies"}, {"measurement": "bacterial colony formation in minimal media", "setting": "[1]; listed as Basic-cJun", "result": "no colonies grow"}, {"measurement": "binding result", "setting": "[2]", "result": "binds"}]}]}
